Target: IgE-Tb / sFcεRIα-Y131A-AF488 (Homo sapiens, UniProt P01854, N146Q/N252Q)
Assay: IgE-Tb / sFcεRIα-Y131A-AF488 FRET assay (protocol for examples 234 to 501)
Format: binding
Conditions: examples 234 to 501: compound with IgE-Tb 30 minutes before sFcεRIα-Y131A-AF488, incubated 18 hours at room temperature; read-out: Y131A FRET IC50 range
How it was run: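 Read-out is the 520/490 nm emission ratio (337 nm excitation) after 18 h at room temperature, background subtracted, fitted four-parameter for IC50. Final reagents: 5 nM IgE-Tb, preincubated 30 min with compound (top typically 10 μM, 2% DMSO, 3-fold 10-point), plus 25 nM sFcεRIα-Y131A-AF488.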

Sequence of IgE-Tb / sFcεRIα-Y131A-AF488 (P01854 whole entry N146Q/N252Q): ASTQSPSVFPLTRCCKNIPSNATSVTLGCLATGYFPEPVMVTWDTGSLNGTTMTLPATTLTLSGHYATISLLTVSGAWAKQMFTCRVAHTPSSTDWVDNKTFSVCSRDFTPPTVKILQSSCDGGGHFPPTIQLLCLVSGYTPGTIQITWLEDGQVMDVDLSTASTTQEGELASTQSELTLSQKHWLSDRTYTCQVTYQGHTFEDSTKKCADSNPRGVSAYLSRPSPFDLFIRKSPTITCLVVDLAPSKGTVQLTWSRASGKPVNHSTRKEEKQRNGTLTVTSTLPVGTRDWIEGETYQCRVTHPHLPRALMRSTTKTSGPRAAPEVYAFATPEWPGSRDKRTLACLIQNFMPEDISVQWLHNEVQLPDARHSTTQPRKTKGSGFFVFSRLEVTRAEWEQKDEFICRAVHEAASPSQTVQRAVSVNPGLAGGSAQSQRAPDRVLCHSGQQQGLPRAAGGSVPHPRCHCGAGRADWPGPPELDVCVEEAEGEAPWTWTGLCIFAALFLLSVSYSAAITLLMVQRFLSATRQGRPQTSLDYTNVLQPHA

SMILES | IC50
COc1cc(Nc2nncn2[C@H]2CCc3sc(NC(=O)[C@H]4C[C@@H]4C)c(C(=O)NC[C@H]4C[C@@H]4F)c3C2)n(C)n1 [Example 466, (5S)—N-[[(1R,2S)-2-fluorocyclopropyl]methyl]-5-[3-[(5-methoxy-2-methylpyrazol-3-yl)amino]-1,2,4-triazol-4-yl]-2-[[(1S,2S)-2-methylcyclopropanecarbonyl]amino]-4,5,6,7-tetrahydro-1-benzothiophene-3-carboxamide] | < 1 µM
COc1cc(Nc2nncn2[C@H]2CCc3sc(NC(=O)[C@H]4C[C@@H]4C)c(C(=O)NC[C@H]4C[C@H](F)C4)c3C2)n(C)n1 [Example 467, (5S)—N-[trans-(3-fluorocyclobutyl)methyl]-5-[3-[(5-methoxy-2-methylpyrazol-3-yl)amino]-1,2,4-triazol-4-yl]-2-[[(1S,2S)-2-methylcyclopropanecarbonyl]amino]-4,5,6,7-tetrahydro-1-benzothiophene-3-carboxamide] | < 1 µM
COc1cc(Nc2nncn2[C@H]2CCc3sc(NC(=O)[C@H]4C[C@@H]4C)c(C(=O)NCC4CC4)c3C2)n(C)n1 [Example 468, (5S)—N-(cyclopropylmethyl)-5-[3-[(5-methoxy-2-methylpyrazol-3-yl)amino]-1,2,4-triazol-4-yl]-2-[[(1S,2S)-2-methylcyclopropanecarbonyl]amino]-4,5,6,7-tetrahydro-1-benzothiophene-3-carboxamide] | < 1 µM
Cn1nc(C(F)F)cc1Nc1nncn1[C@H]1CCc2sc(NC(=O)[C@H]3C[C@H](F)C3)c(C(=O)NC[C@H]3C[C@@H]3F)c2C1 [Example 471, (5S)-5-[3-[[5-(difluoromethyl)-2-methylpyrazol-3-yl]amino]-1,2,4-triazol-4-yl]-2-[trans-(3-fluorocyclobutanecarbonyl)amino]-N-[[(1R,2S)-2-fluorocyclopropyl]methyl]-4,5,6,7-tetrahydro-1-benzothiophene-3-carboxamide] | < 1 µM
Cn1nc(C(F)F)cc1Nc1nncn1[C@H]1CCc2sc(NC(=O)[C@H]3C[C@H](F)C3)c(C(=O)NCC3CCC3)c2C1 [Example 473, (5S)—N-(cyclobutylmethyl)-5-[3-[[5-(difluoromethyl)-2-methylpyrazol-3-yl]amino]-1,2,4-triazol-4-yl]-2-[trans-(3-fluorocyclobutanecarbonyl)amino]-4,5,6,7-tetrahydro-1-benzothiophene-3-carboxamide] | < 1 µM
Cn1nc(C(F)F)cc1Nc1nncn1[C@H]1CCc2sc(NC(=O)C3CC(F)(F)C3)c(C(=O)NC[C@H]3C[C@H]3F)c2C1 [Example 479, (5S)-2-[(3,3-difluorocyclobutanecarbonyl)amino]-5-[3-[[5-(difluoromethyl)-2-methylpyrazol-3-yl]amino]-1,2,4-triazol-4-yl]-N-[[(1R,2R)-2-fluorocyclopropyl]methyl]-4,5,6,7-tetrahydro-1-benzothiophene-3-carboxamide] | < 1 µM
Cn1nc(C(F)F)cc1Nc1nncn1[C@H]1CCc2sc(NC(=O)C3CC(F)(F)C3)c(C(=O)N[C@H]3C[C@H](F)C3)c2C1 [Example 480, (5S)-2-[(3,3-difluorocyclobutanecarbonyl)amino]-5-[3-[[5-(difluoromethyl)-2-methylpyrazol-3-yl]amino]-1,2,4-triazol-4-yl]-N-(trans-3-fluorocyclobutyl)-4,5,6,7-tetrahydro-1-benzothiophene-3-carboxamide] | < 1 µM
Cn1nc(OC(F)F)cc1Nc1nncn1[C@H]1CCc2sc(NC(=O)[C@H]3C[C@H](F)C3)c(C(=O)NC[C@@H]3C[C@@H]3F)c2C1 [Example 481, (5S)-5-[3-[[5-(difluoromethoxy)-2-methylpyrazol-3-yl]amino]-1,2,4-triazol-4-yl]-2-[trans-(3-fluorocyclobutanecarbonyl)amino]-N-[[(1S,2S)-2-fluorocyclopropyl]methyl]-4,5,6,7-tetrahydro-1-benzothiophene-3-carboxamide] | < 1 µM
Cn1nc(OC(F)F)cc1Nc1nncn1[C@H]1CCc2sc(NC(=O)[C@H]3C[C@H](F)C3)c(C(=O)NC[C@H]3C[C@H]3F)c2C1 [Example 482, (5S)-5-[3-[[5-(difluoromethoxy)-2-methylpyrazol-3-yl]amino]-1,2,4-triazol-4-yl]-2-[trans-(3-fluorocyclobutanecarbonyl)amino]-N-[[(1R,2R)-2-fluorocyclopropyl]methyl]-4,5,6,7-tetrahydro-1-benzothiophene-3-carboxamide] | < 1 µM
Cn1nc(OC(F)F)cc1Nc1nncn1[C@H]1CCc2sc(NC(=O)[C@H]3C[C@H](F)C3)c(C(=O)NC[C@H]3C[C@@H]3F)c2C1 [Example 483, (5S)-5-[3-[[5-(difluoromethoxy)-2-methylpyrazol-3-yl]amino]-1,2,4-triazol-4-yl]-2-[trans-(3-fluorocyclobutanecarbonyl)amino]-N-[[(1R,2S)-2-fluorocyclopropyl]methyl]-4,5,6,7-tetrahydro-1-benzothiophene-3-carboxamide] | < 1 µM
Cn1nc(OC(F)F)cc1Nc1nncn1[C@H]1CCc2sc(NC(=O)[C@H]3C[C@H](F)C3)c(C(=O)NC[C@H]3C[C@H](F)C3)c2C1 [Example 486, (5S)-5-[3-[[5-(difluoromethoxy)-2-methylpyrazol-3-yl]amino]-1,2,4-triazol-4-yl]-2-[trans-(3-fluorocyclobutanecarbonyl)amino]-N-[trans-(3-fluorocyclobutyl)methyl]-4,5,6,7-tetrahydro-1-benzothiophene-3-carboxamide] | < 1 µM
Cn1nc(OC(F)F)cc1Nc1nncn1[C@H]1CCc2sc(NC(=O)[C@H]3C[C@H](F)C3)c(C(=O)N[C@H]3C[C@H](F)C3)c2C1 [Example 487, (5S)-5-[3-[[5-(difluoromethoxy)-2-methylpyrazol-3-yl]amino]-1,2,4-triazol-4-yl]-2-[trans-(3-fluorocyclobutanecarbonyl)amino]-N-(trans-3-fluorocyclobutyl)-4,5,6,7-tetrahydro-1-benzothiophene-3-carboxamide] | < 1 µM
Cn1nc(OC(F)F)cc1Nc1nncn1[C@H]1CCc2sc(NC(=O)C3CC(F)(F)C3)c(C(=O)NC[C@@H]3C[C@@H]3F)c2C1 [Example 490, (5S)-2-[(3,3-difluorocyclobutanecarbonyl)amino]-5-[3-[[5-(difluoromethoxy)-2-methylpyrazol-3-yl]amino]-1,2,4-triazol-4-yl]-N-[[(1S,2S)-2-fluorocyclopropyl]methyl]-4,5,6,7-tetrahydro-1-benzothiophene-3-carboxamide] | < 1 µM
Cn1nc(OC(F)F)cc1Nc1nncn1[C@H]1CCc2sc(NC(=O)C3CC(F)(F)C3)c(C(=O)NC[C@H]3C[C@H]3F)c2C1 [Example 491, (5S)-2-[(3,3-difluorocyclobutanecarbonyl)amino]-5-[3-[[5-(difluoromethoxy)-2-methylpyrazol-3-yl]amino]-1,2,4-triazol-4-yl]-N-[[(1R,2R)-2-fluorocyclopropyl]methyl]-4,5,6,7-tetrahydro-1-benzothiophene-3-carboxamide] | < 1 µM
Cn1nc(OC(F)F)cc1Nc1nncn1[C@H]1CCc2sc(NC(=O)C3CC(F)(F)C3)c(C(=O)N[C@H]3C[C@H](F)C3)c2C1 [Example 492, (5S)-2-[(3,3-difluorocyclobutanecarbonyl)amino]-5-[3-[[5-(difluoromethoxy)-2-methylpyrazol-3-yl]amino]-1,2,4-triazol-4-yl]-N-(trans-3-fluorocyclobutyl)-4,5,6,7-tetrahydro-1-benzothiophene-3-carboxamide] | < 1 µM
Cn1nc(C(F)F)cc1Nc1nncn1[C@H]1CCc2sc(NC(=O)C3CC3)c(C(=O)N[C@@H]3CC34CC4)c2C1 [Example 496, (5S)-2-(cyclopropanecarbonylamino)-5-[3-[[5-(difluoromethyl)-2-methyl-pyrazol-3-yl]amino]-1,2,4-triazol-4-yl]-N-[(2R)-spiro[2.2]pentan-2-yl]-4,5,6,7-tetrahydrobenzothiophene-3-carboxamide] | < 1 µM
Cc1cc(Nc2nncn2[C@H]2CCc3sc(NC(=O)C4CC45CC5)c(C(=O)NCC4CC4)c3C2)n(C)n1 (stereo partly drawn) [Example 499, (5S)—N-(cyclopropylmethyl)-5-[3-[(2,5-dimethylpyrazol-3-yl)amino]-1,2,4-triazol-4-yl]-2-(spiro[2.2]pentane-2-carbonylamino)-4,5,6,7-tetrahydrobenzothiophene-3-carboxamide] | < 1 µM

Reference: US12018021B2 (UCB Biopharma SRL, priority 2018, dated 2024)
